This passage reports GI50 and TGI results from PubChem BioAssay (NCI).

Several values for one entry are separate records, joined by “and”; a condition that tells them apart may be missing. Identical values can stand only once.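 Exposure lasted 48 hours, with cells grown in 96-well plates and compounds tested at five concentrations. Here, GI50 denotes the concentration required for 50% inhibition of growth. Definition used: TGI = concentration required for complete inhibition of growth.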

Among the test systems are HS 578T breast; RXF 393 renal; DU-145 prostate; HCT-15 colon; SW-620 colon; LOX IMVI melanoma; K-562 leukemia; NCI-H460 lung; EKVX NSCLC; MOLT-4 leukemia.
Holding throughout (assay): NCI tumour cell line growth inhibition, 48 h

Take `CCCCCCCCCCCCCCCC[N+](C)(C)Cc1ccccc1`: the GI50 is 1.82 µM with HS 578T breast; 0.606 µM and 0.306 µM in the assay on RXF 393 renal; 1.7 µM and 1.62 µM in the assay with DU-145 prostate; 2.86 µM and 3.24 µM with HCT-15 colon. Moreover, the TGI with HS 578T breast was 4.89 µM; with RXF 393 renal, 1.97 µM and 1.35 µM; in the assay with DU-145 prostate, 3.22 µM and 3.12 µM; with HCT-15 colon, 15.8 µM and > 30.4 µM.

`O=C1CCC2(c3ccc(Cl)cc3)Nc3ccncc3N12` (stereo not given): the TGI in the assay with HS 578T breast, with SW-620 colon, in the assay on LOX IMVI melanoma, in the assay on K-562 leukemia, in the assay with DU-145 prostate and in the assay on NCI-H460 lung was > 10 µM each time. The TGI in the assay with HCT-15 colon, in the assay with EKVX NSCLC and with MOLT-4 leukemia was > 10 µM each time.

With `O=C(Nc1ccc(Oc2ccc(Nc3nc4ccccc4s3)cc2)cc1)Nc1ccc(Cl)c(C(F)(F)F)c1`, the GI50 was 2.07 µM in the assay on HS 578T breast; 1.75 µM with SW-620 colon; 1.42 µM in the assay on LOX IMVI melanoma; 2.51 µM in the assay on K-562 leukemia; 1.8 µM in the assay with RXF 393 renal; 2.47 µM with DU-145 prostate. In addition, the results for the GI50 with NCI-H460 lung, in the assay on HCT-15 colon and in the assay with EKVX NSCLC were 1.74 µM, 1.54 µM and 1.62 µM, respectively. In addition, the TGI with HS 578T breast worked out at 7.55 µM; with SW-620 colon it was 3.54 µM; in the assay on LOX IMVI melanoma, 2.76 µM; with K-562 leukemia, 14.2 µM; in the assay with RXF 393 renal, 4 µM; in the assay on DU-145 prostate it was 7.22 µM. The TGI amounted to 4.34 µM with NCI-H460 lung, 3.44 µM with HCT-15 colon and 5.45 µM with EKVX NSCLC.

With `COc1cccc(C(=O)NC(c2ccc(C)cc2)c2cc(Cl)c3cccnc3c2O)c1` (stereo not given), the GI50 was 0.362 µM with HS 578T breast; 0.425 µM in the assay on SW-620 colon; 0.563 µM in the assay with LOX IMVI melanoma; 0.466 µM in the assay with K-562 leukemia; 0.736 µM in the assay on RXF 393 renal; 1.14 µM in the assay with DU-145 prostate. Moreover, the figures for the GI50 in the assay with NCI-H460 lung, in the assay on HCT-15 colon and with MOLT-4 leukemia were 0.359 µM, 0.309 µM and 0.622 µM, respectively. Besides, the TGI in the assay with HS 578T breast was 30.5 µM; in the assay with SW-620 colon it was 23.4 µM; with LOX IMVI melanoma it was 11.6 µM; with K-562 leukemia, 54.8 µM; in the assay on RXF 393 renal, 3.44 µM; in the assay with DU-145 prostate, 14.3 µM. Also, the figures for the TGI with NCI-H460 lung, with HCT-15 colon and in the assay with MOLT-4 leukemia were 4.66 µM, 28.2 µM and 8.05 µM, respectively.

For `COc1ccc(C2[C@@H](c3ccccc3)C(=O)N2c2cc(OC)c(OC)c(OC)c2)cc1F` (stereo not given in full), the GI50 is 0.0434 µM in the assay on HS 578T breast; 0.0419 µM with SW-620 colon; 0.0296 µM in the assay with LOX IMVI melanoma; 0.0321 µM in the assay with K-562 leukemia; 0.0354 µM with DU-145 prostate; 0.0344 µM in the assay on NCI-H460 lung. Moreover, the results for the GI50 in the assay on HCT-15 colon, in the assay on EKVX NSCLC and in the assay on MOLT-4 leukemia were 0.0336 µM, 0.0776 µM and 0.0381 µM, respectively. For the same compound, the TGI was 78.7 µM in the assay on HS 578T breast; > 100 µM in the assay with SW-620 colon; 13.8 µM with LOX IMVI melanoma; > 100 µM with K-562 leukemia; > 100 µM in the assay on DU-145 prostate; > 100 µM in the assay on NCI-H460 lung. Besides, the TGI in the assay on HCT-15 colon, in the assay with EKVX NSCLC and with MOLT-4 leukemia was > 100 µM each time.

With `C=C1C(=O)O[C@H]2[C@H]1CC/C(COC(=O)NCc1ccc(Cn3c(=O)sn(-c4ccc(OC)cc4)c3=O)cc1)=C\CC[C@@]1(C)O[C@@H]21`, the GI50 with HS 578T breast was 2.92 µM; in the assay on SW-620 colon, 1.77 µM; in the assay with LOX IMVI melanoma, 1.73 µM; with DU-145 prostate, 1.81 µM; in the assay with NCI-H460 lung it was 3.7 µM; in the assay on HCT-15 colon, 1.68 µM. Besides, the GI50 was 3.5 µM with EKVX NSCLC and 1.93 µM with MOLT-4 leukemia. The TGI with HS 578T breast was 14.2 µM; in the assay with SW-620 colon it was 3.61 µM; in the assay on LOX IMVI melanoma, 3.12 µM; in the assay with DU-145 prostate it was 3.21 µM; with NCI-H460 lung it was 13.5 µM; in the assay with HCT-15 colon, 3.36 µM. The values for the TGI in the assay with EKVX NSCLC and in the assay on MOLT-4 leukemia were 14.6 µM and 5.95 µM, respectively.

For `COc1ccc2nc(NC(=O)CSc3nnc4n3S(=O)(=O)c3ccccc3N4c3ccccc3)sc2c1`, the GI50 in the assay with HS 578T breast, in the assay on SW-620 colon, in the assay on LOX IMVI melanoma, with K-562 leukemia, with DU-145 prostate and in the assay on NCI-H460 lung was > 100 µM each time. In addition, the GI50 in the assay on HCT-15 colon, in the assay on EKVX NSCLC and in the assay with MOLT-4 leukemia was > 100 µM throughout. Besides, the TGI in the assay with HS 578T breast, in the assay on SW-620 colon, in the assay with LOX IMVI melanoma, with K-562 leukemia, in the assay on DU-145 prostate and in the assay with NCI-H460 lung was > 100 µM in each case. The TGI with HCT-15 colon, with EKVX NSCLC and in the assay on MOLT-4 leukemia was > 100 µM each time.

On to `COc1cc(/C(C#N)=C/c2nc3c(N4CCOCC4)nc(Cl)nc3n2C)cc(OC)c1OC`, for which the GI50 in the assay on HS 578T breast, in the assay on SW-620 colon, with LOX IMVI melanoma, in the assay with K-562 leukemia, in the assay with DU-145 prostate and in the assay with NCI-H460 lung was < 0.01 µM each time. In addition, the values for the GI50 in the assay on HCT-15 colon and in the assay with MOLT-4 leukemia were < 0.01 µM and < 0.0184 µM, respectively. The TGI with HS 578T breast was > 23.7 µM; with SW-620 colon it was > 100 µM; in the assay on LOX IMVI melanoma, 4.17 µM; with K-562 leukemia it was > 38.4 µM; in the assay on DU-145 prostate, > 94.3 µM; with NCI-H460 lung, 5.37 µM. The values for the TGI with HCT-15 colon, in the assay with EKVX NSCLC and in the assay on MOLT-4 leukemia were 6.94 µM, > 69.9 µM and 27.5 µM, respectively.

In the case of `O=C1NC(=NC(CO)Cc2ccccc2)S/C1=C\c1ccc2ncccc2c1` (stereo not given), the GI50 was 11.3 µM and 7.01 µM in the assay with HS 578T breast; 9.04 µM and 0.927 µM with SW-620 colon; 16.5 µM and 3.85 µM with LOX IMVI melanoma; 11.2 µM and 3.48 µM in the assay on K-562 leukemia; 11.5 µM and 3.82 µM in the assay with RXF 393 renal; 18.8 µM and 2.62 µM in the assay on DU-145 prostate. The GI50 in the assay with NCI-H460 lung was 14.6 µM and 3.02 µM; in the assay with HCT-15 colon, 10.5 µM and 4.19 µM; with MOLT-4 leukemia, 12.2 µM and 7.45 µM. Moreover, the TGI in the assay on HS 578T breast was > 25 µM; in the assay on SW-620 colon, > 25 µM; in the assay on LOX IMVI melanoma, > 25 µM; with K-562 leukemia, > 25 µM; with RXF 393 renal, > 25 µM and 10.7 µM; in the assay on DU-145 prostate, > 25 µM. For the same compound, the TGI with NCI-H460 lung was > 25 µM; in the assay with HCT-15 colon, > 25 µM; in the assay on MOLT-4 leukemia it was > 25 µM and 18.7 µM.
